The test system of one data set is Caov3 cells. Nature of the data set: 72 h MTT cytotoxicity, Caov3. It is filed as cell-based, human. The procedure:
(§1) Cytotoxicity. Tumor cells were cultured overnight after inoculation in RPMI-1640 medium or DMEM supplemented with 10% FBS. All cultures were maintained in an incubator in a highly humidified atmosphere of 95% air with 5% CO2 at 37 °C. Growth inhibition was measured with an MTT assay. Briefly, 2800–7000 cells per well in culture medium (100 μL) were plated in 96-well plates (Corning). The cells were treated in triplicate with different concentrations of complexes at 37 ℃ for 72 h. Stock solutions of CDDP and oxoplatin were prepared in PBS, while stock solutions of conjugates I and II and the ligand MSA-2 were prepared in DMSO. The stock solutions were diluted in complete medium (DMSO < 0.5%). An aliquot of MTT solution (40 μL, 2.5 mg·mL^–1) in PBS buffer was added to each well and incubated for 4 h. The supernatant was removed and DMSO (150 μL) was added to solubilize the formazan crystals. The amount of formazan was determined using a microplate reader at 570 nm after the plates were shaken for 30 min. The optical density (OD) was used to calculate the percentage of viable cells relative to untreated control values. Background readings for MTT incubated in cell-free medium were subtracted from each value before calculation. […] The mean IC50 values were calculated using data from three replicates.

For data set [1], the system named is PANC-1 cells. The data set is described as follows: 72 h MTT cytotoxicity, PANC-1. It is filed as cell-based, human. The procedure: as §1
The test system of another data set is MCF-7 cells. Nature of the data set: 72 h MTT cytotoxicity, MCF-7. It is filed as cell-based, human. The procedure:
as §1

Data set [2] concerns nuclear DNA of PANC-1 cells. Nature of the data set: platination of cellular DNA by ICP-MS. Conditions: 6 h. It is filed as cell-based, human. The procedure:
DNA platination. Cancer cells were seeded in 6-well plates at a density of 5×10^5 cells per well. After incubation at 37 °C for 24 h, the cells were treated with each complex for 6 h. The attached cells were harvested with trypsin and washed twice with PBS (4 °C). The cell pellets were lysed with the TIANamp Genomic DNA Kit. The DNA concentration was determined using NanoDrop spectrophotometer, and then the isolated DNA was digested with the same method mentioned above. The final Pt content was determined by ICP-MS.

Data set [3] can be described thus: H&E histology of major organs after treatment. It is filed as in vivo, mouse. Conditions: C57BL/6 mice after treatment, 10.0 μmol/kg. How it is done:
Hematoxylin and eosin staining. Tissue samples were subjected to histopathological examination using hematoxylin and eosin (H&E) staining. Mouse organs (heart, liver, spleen, lungs and kidneys) were collected in 4% paraformaldehyde for proper fixation and then embedded in paraffin using a tissue embedding machine. Sections were prepared in an orderly manner by dewaxing, dehydration, and H&E staining. The tissue morphology was observed under a fluorescence microscope (Olympus BX41, Japan).

Data set [4] has as its system Pan02 tumor tissue immune cells. The data set is described as follows: flow cytometric analysis of immune cells in Pan02 tumor tissue. Conditions: Pan02 tumors; comparable to CDDP and CDDP + MSA-2 groups. It is filed as in vivo, mouse. The procedure:
Flow cytometric analysis. To analyze the levels of immune cells in the tumor microenvironment, mice were sacrificed six days after the final treatment. The obtained tumors were cut into pieces and digested in T cell medium. Single-cell suspensions were obtained after filtration through nylon mesh and incubated with various antibodies. FACS tests were carried out on a flow cytometer, and the results were analyzed with NovaExpress. The following monoclonal antibodies (mAbs) were used for flow cytometry: anti-CD3-APC (17A2), anti-CD4-AF700 (RM4-5), anti-CD8-PE (53-6.7), anti-NK1.1-PE/Cy7 (PK136), anti-PD-1-FITC (29F. 1A12), anti-CD69-PE/Cy5 (H1.2F3).
In general terms: In flow cytometry, cells or beads pass a laser one at a time.

The nature of data set [5]: octanol-water partition coefficient, shake-flask, ICP-MS. It is filed as physicochemical. Conditions: n-octanol / phosphate buffer 10 mM pH 7.4, room temperature. How it is done:
Lipid-water partition coefficient. The shake-flask method was used to measure the partition coefficients of CDDP, I and II. Briefly, a mixture containing equal volumes of n-octanol and phosphate buffer (10 mM, pH 7.4) was shaken on a mechanical shaker at room temperature for 24 h. Complexes (10 mM) in phosphate buffer (presaturated with n-octanol) were mixed with an equal volume of n-octanol (presaturated with phosphate buffer), and the mixture was shaken for 24 h at room temperature. Centrifugation was carried out at 2500 rpm for 30 min to separate the two phases. The aqueous layer was carefully separated, and the Pt content in the initial and final aqueous phases was analyzed by inductively coupled plasma mass spectrometry (ICP-MS). The log PO/W was measured using the following equation: log PO/W = log [(Ptinitial ‒ Ptfinal)/Ptfinal].

The test system of data set [6] is PANC-1 cells. The data set is described as follows: cellular uptake of Pt by ICP-MS, PANC-1. It is filed as cell-based, human. How it is done:
Cellular uptake. All incubations were carried out in the dark. After the designated incubation period, the medium was removed, and the cells were harvested with trypsin and rinsed twice with PBS (1×, 20 mM, pH 7.4), followed by digestion and ICP-MS.
Cancer cells were seeded in a 6-well plate at a density of 5×10^5 cells per well. After incubation for 24 h, the cells were treated with each complex for 6 h.
Cancer cells preincubated with metabolic inhibitor (MIs) were also evaluated. These cells were preincubated with 2-deoxy-D-glucose and oligomycin (50 mM and 5 μM, respectively, 1 h) or NH4Cl (50 mM, 1 h) at 37 ℃ followed by incubation with DMEM containing CDDP, I or II at 37 ℃ for 6 h.
Digestion. Cell pellets were collected by centrifugation and then digested with nitric acid (100 µL) for 2 h at 95 °C, followed by the addition of H2O2 (50 µL) at 95 °C for 0.5 h. HCl (100 µL) was added and kept at 95 °C until the total volume was less than 20 μL. Water was then added to dilute the solution to 1 mL, and the final Pt content was determined by ICP-MS.

The test system of the next data set is STING pathway in BMDCs. Nature of the data set: IFN-β and IL-6 ELISA in supernatants of BMDCs treated with complexes. It is filed as cell-based, mouse. The procedure: ELISA. Bone marrow-derived dendritic cells (BMDCs) were prepared according to the following method. Briefly, femurs and tibias were removed from 4-6 week-old C57BL/6 mice, and the bone marrow cells were isolated. The bone marrow cells were incubated in T cell medium [RPMI-1640 medium (with GlutaMAX), supplemented with 10% FBS, 1% HEPES, 1% NEAA, 1% sodium pyruvate, and 0.1% βME] containing 20 ng/mL GM-CSF for 6 days after erythrocyte lysis, during which time half of the medium was replaced with fresh T cell medium once and the cytokines were supplemented. Then, the BMDCs were harvested on day 7 for further study.
BMDCs were cultured with 50% CM plus 50% fresh medium for 18 h. In addition, BMDCs were cultured with fresh medium containing different complexes or mixtures (15 μM CDDP and I, a mixture of I and 8 equiv. AsA, and equal AsA). Then, all the BMDC supernatant was collected and centrifuged for subsequent cytokine analysis using ELISA kits, which were performed according to the manufacturer’s instructions.

[7] abbreviates: pretreated with 8 equiv. AsA for 24 h, compared with no pretreatment.

The IC50 is the concentration that inhibits the measured activity by half. Read a low IC50 as greater potency in that assay. In turn, `COc1cc2cc(C(=O)CCC(=O)[O][Pt]([NH2])([NH2])([OH])([Cl])[Cl])sc2cc1OC` [conjugate I] had an IC50 with Caov3 cells of 700 ± 100 nM. In the data set on PANC-1 cells [1], this molecule yielded an IC50 of 60 ± 20 nM. For the same molecule, the IC50 with MCF-7 cells was 300 ± 100 nM. In addition, the “platination of cellular DNA” value in data set [2] is on record as “stronger than that by CDDP or conjugate II”. Besides, the “histological findings in major organs” value in data set [3] was “only mild vacuolar degeneration in the liver and aggregates containing only a few inflammatory cells in the lungs”. Besides, in data set [4], the “infiltration of CD8+ and CD4+ T cells” value is “slightly increased”. Besides, the “octanol-water partition coefficient (logPo/w)” value in data set [5] stood at 0.9. Moreover, the “cellular Pt levels after preincubation with metabolic inhibitors (MIs)” value with PANC-1 cells [6] (PANC-1, 5 μM, 6 h, 50 mM 2-deoxy-D-glucose and 5 μM oligomycin, versus no MI pretreatment) was “significantly decreased”. The “intracellular Pt levels after pretreatment with endocytosis inhibitor NH4Cl” value with PANC-1 cells [6] (PANC-1, 5 μM, 6 h, 50 mM NH4Cl) is given as “did not significantly change”. Also, in the data set on PANC-1 cells [6] (PANC-1 cells, 6 h), the “fold increase of cellular Pt compared with CDDP” value is listed as 92 fold and the “fold increase of cellular Pt compared with conjugate II” value is on record as 68 fold. Further, in the data set on PANC-1 cells [6] (PANC-1 cells, 6 h incubation, ICP-MS), the “cellular Pt content” value is 155.7 ng Pt/mg protein. In addition, in the data set with STING pathway in BMDCs (18 h, ELISA, 15 μM), the “IFN-β secretion by BMDCs” value was “minimal” and the “IL-6 secretion by BMDCs” value is on record as “minimal”. In addition, in the data set with STING pathway in BMDCs (setting [7]), the “IFN-β secretion by BMDCs, compound pretreated with AsA” value is “significantly enhanced” and the “IL-6 secretion by BMDCs, compound pretreated with AsA” value is on record as “significantly enhanced”.

For the origin of these results see PMC10852989, “Combining cisplatin and a STING agonist into one molecule for metalloimmunotherapy of cancer” (National Science Review, 2024).
